Data taken from ChEMBL document CHEMBL2021882, “Aglycone-focused randomization of 2-difluoromethylphenyl-type sialoside suicide substrates for neuraminidases” (Bioorg Med Chem, 2012).

System: Vibrio cholerae
Description: Inhibition of Vibrio cholerae neuraminidase using 4-MU-NANA as substrate preincubated for 15 mins prior addition of substrate measured at 5 mins intervals by fluorimetry relative to control

COc1ncc(C(F)(F)F)cc1NC(=O)OCc1cn(-c2ccc(O[C@]3(C(=O)O)C[C@H](O)[C@@H](NC(C)=O)[C@H]([C@H](O)[C@H](O)CO)O3)c(C(F)F)c2)nn1
Kinact: 0.091 min⁻¹ | T1/2: 7.6 min
